Like-named read-outs stand apart in the source and are kept apart here.
Columns and labels:
[1] = test system: adolescents with single ventricle physiology after Fontan palliation; assay type: in vivo, human
Protocol: A Phase I/II dose escalation trial of Udenafil in adolescents with single ventricle physiology after Fontan palliation was conducted. […] The 36 subjects enrolled in the trial were comprised of 6 cohorts, as described in Table 1. The goals for this trial were to assess the safety of udenafil at multiple dose levels over a five-day period, the pharmacokinetic profile of udenafil in adolescents with Fontan physiology, and the short-term effect of udenafil on pharmacodynamic measures of exercise capacity, ventricular performance, and vascular function. Multiple doses of udenafil or a pharmaceutically acceptable salt thereof were administered to male and female Fontan patients who are 14-18 years of age. Inclusion Criteria for the trial were: • Males and females with Fontan physiology who are 14-18 years of age. • Willingness to return to center to complete blood draws and exercise tests as described in the study protocol. • Patients must agree to abstain from alcohol, caffeinated beverages, and grapefruit juice for the duration of the trial. • Informed assent from subject and informed consent from parent/legal guardian as appropriate. […] The purpose of this example was to describe and evaluate the safety of the udenafil compositions administered in the study described in Example 1. Tables 3-6 present numbers of subjects reporting at least one AE; data are presented by treatment group. The counts are presented by AE category (Table 3) and by preferred term (Table 6). Tables 3-6 report all AEs by category (Table 3), serious AEs (Table 4), non-serious AEs (Table 5), and all AEs by preferred term (Table 6). […] Tables 9-12 present AEs by preferred term (similar to Table 6), but additionally report the number of subjects with an AE and the number of AEs (Table 9), the number of AE events/subjects grouped by treatment group and by related (including possibly or probably) vs. not related to the study drug (Table 10), mild vs. moderate/severe (Table 11), and expected vs. unexpected AEs (Table 12).

[2] = test system: adolescents with single ventricle physiology after Fontan palliation; experiment: Exercise testing (peak VO2 at maximum effort, VO2 at anaerobic threshold); assay type: in vivo, human; details: for Peak VO2 at Anaerobic Threshold, Baseline measurement / Peak VO2 at Maximum Effort, Baseline measurement: day 1; for Peak VO2 at Anaerobic Threshold, Follow-up measurement / Peak VO2 at Maximum Effort, Follow-up measurement: post-medication, day 5
Excerpt: Exercise testing can include assessment of VO2 values during maximal effort or at anaerobic threshold. VO2 max, or maximal oxygen consumption, refers to the maximum amount of oxygen that an individual can utilize during intense exercise. This measurement is generally considered a reliable indicator of cardiovascular fitness and aerobic endurance. Theoretically, the more oxygen a person can use during high level exercise, the more energy that person can produce. This test is the gold standard for cardiorespiratory fitness because muscles need oxygen for prolonged (aerobic) exercise; blood carries oxygen to the muscles and the heart must pump adequate amounts of blood to meet the demands of aerobic exercise. VO2 is often measured by putting a mask on a subject, and measuring the volume and gas concentrations of inhaled and expired air. This measurement is often used in both clinical settings and research and is considered the most accurate. Testing commonly involves either exercising on a treadmill or riding a bike at increasing intensity until exhaustion, and is designed to provide readings at a maximal effort of the subject and/or at the subject's anaerobic threshold. The purpose of this example was to evaluate the efficacy of the treatment protocol described in Example 1 using various exercise testing parameters. The primary outcome of this arm of the study was maximal VO2 as determined by exercise testing. Table 14 summarizes results for the key outcome from the exercise testing—peak VO2 (limited to the subjects who achieved maximum effort) by treatment group. Out of the 36 subjects enrolled in the trial, 33 reached max effort in the exercise testing at each of the time points, and 31 subjects at both time points. The first two lines present data for baseline and follow-up measurements, while the third line presents differences between the two measurements (change scores, the outcome for this aim). […] An additional outcome, VO2 at anaerobic threshold, was also measured. Similar analyses were performed for this outcome. Overall results are similar to those for maximal VO2.

CCCOc1ccc(S(=O)(=O)NCCC2CCCN2C)cc1-c1nc2c(CCC)nn(C)c2c(=O)[nH]1 (stereo not drawn) [udenafil]
AE category: Musculoskeletal/skin ([1]; 37.5 mg daily): 1 (17%) n (%) | AE category: Musculoskeletal/skin ([1]; 37.5 mg twice daily): 1 (17%) n (%) | AE category: Musculoskeletal/skin ([1]; 87.5 mg daily): 1 (17%) n (%) | AE category: Musculoskeletal/skin ([1]; 87.5 mg twice daily): 2 (33%) n (%) | AE category: Musculoskeletal/skin ([1]; 125 mg daily): 2 (33%) n (%) | subjects who had expected adverse events ([1]; both, human, in vivo, 5 day): 27 | subjects who had unexpected adverse events ([1]; both, human, in vivo, 5 day): 18 | Subjects with adverse events possibly related to the study drug ([1]; both, human, in vivo, 5 days): 21 subjects | Subjects with adverse events probably related to the study drug ([1]; both, human, in vivo, 5 days): 11 subjects | Subjects with adverse events related to the study drug ([1]; both, human, in vivo, 5 days): none | Subjects with adverse events unrelated to the study drug ([1]; both, human, in vivo, 5 days): 17 subjects | subjects who had a severe adverse event ([1]; both, human, in vivo, 5 days): 1 | subjects who had mild adverse events ([1]; both, human, in vivo, 5 days): 27 | subjects who had moderate adverse events ([1]; both, human, in vivo, 5 days): 13 | Serious adverse events ([1]; in vivo): No serious AEs were reported | Peak VO2 at Anaerobic Threshold, Difference, FU − BL ([2]; 37.5 mg daily): -0.5 ± 4.1 mL/min/kg | Peak VO2 at Maximum Effort, Difference, FU − BL ([2]; 37.5 mg daily): -0.8 ± 1.7 mL/min/kg | Peak VO2 at Anaerobic Threshold, Baseline measurement ([2]; 37.5 mg daily): 17.2 ± 5.0 mL/min/kg | Peak VO2 at Maximum Effort, Baseline measurement ([2]; 37.5 mg daily): 24.6 ± 6.9 mL/min/kg | Peak VO2 at Anaerobic Threshold, Follow-up measurement ([2]; 37.5 mg daily): 16.3 ± 2.0 mL/min/kg | Peak VO2 at Maximum Effort, Follow-up measurement ([2]; 37.5 mg daily): 24.7 ± 6.7 mL/min/kg | Peak VO2 at Anaerobic Threshold, Difference, FU − BL ([2]; 37.5 mg twice daily): 0.1 ± 1.0 mL/min/kg | Peak VO2 at Maximum Effort, Difference, FU − BL ([2]; 37.5 mg twice daily): -1.6 ± 5.1 mL/min/kg | Peak VO2 at Anaerobic Threshold, Baseline measurement ([2]; 37.5 mg twice daily): 18.0 ± 3.0 mL/min/kg | Peak VO2 at Maximum Effort, Baseline measurement ([2]; 37.5 mg twice daily): 30.4 ± 6.2 mL/min/kg | Peak VO2 at Anaerobic Threshold, Follow-up measurement ([2]; 37.5 mg twice daily): 18.1 ± 3.0 mL/min/kg | Peak VO2 at Maximum Effort, Follow-up measurement ([2]; 37.5 mg twice daily): 28.8 ± 8.1 mL/min/kg | Peak VO2 at Anaerobic Threshold, Difference, FU − BL ([2]; 87.5 mg daily): -1.1 ± 1.9 mL/min/kg | Peak VO2 at Maximum Effort, Difference, FU − BL ([2]; 87.5 mg daily): -1.4 ± 2.5 mL/min/kg | Peak VO2 at Anaerobic Threshold, Baseline measurement ([2]; 87.5 mg daily): 17.6 ± 5.3 mL/min/kg | Peak VO2 at Maximum Effort, Baseline measurement ([2]; 87.5 mg daily): 28.4 ± 6.2 mL/min/kg | Peak VO2 at Anaerobic Threshold, Follow-up measurement ([2]; 87.5 mg daily): 16.5 ± 4.8 mL/min/kg | Peak VO2 at Maximum Effort, Follow-up measurement ([2]; 87.5 mg daily): 27.1 ± 5.0 mL/min/kg | Peak VO2 at Anaerobic Threshold, Difference, FU − BL ([2]; 87.5 mg twice daily): -1.7 ± 2.1 mL/min/kg | Peak VO2 at Maximum Effort, Difference, FU − BL ([2]; 87.5 mg twice daily): 0.2 ± 5.0 mL/min/kg | Peak VO2 at Anaerobic Threshold, Baseline measurement ([2]; 87.5 mg twice daily): 18.3 ± 4.6 mL/min/kg | Peak VO2 at Maximum Effort, Baseline measurement ([2]; 87.5 mg twice daily): 28.0 ± 5.2 mL/min/kg | Peak VO2 at Anaerobic Threshold, Follow-up measurement ([2]; 87.5 mg twice daily): 16.5 ± 5.2 mL/min/kg | Peak VO2 at Maximum Effort, Follow-up measurement ([2]; 87.5 mg twice daily): 28.2 ± 6.0 mL/min/kg | Peak VO2 at Anaerobic Threshold, Difference, FU − BL ([2]; 125 mg daily): 1.2 ± 1.9 mL/min/kg | Peak VO2 at Maximum Effort, Difference, FU − BL ([2]; 125 mg daily): 0.9 ± 2.6 mL/min/kg | Peak VO2 at Anaerobic Threshold, Baseline measurement ([2]; 125 mg daily): 18.8 ± 1.8 mL/min/kg | Peak VO2 at Maximum Effort, Baseline measurement ([2]; 125 mg daily): 28.6 ± 3.0 mL/min/kg | Peak VO2 at Anaerobic Threshold, Follow-up measurement ([2]; 125 mg daily): 20.0 ± 3.2 mL/min/kg | Peak VO2 at Maximum Effort, Follow-up measurement ([2]; 125 mg daily): 28.6 ± 3.8 mL/min/kg

From patent publication US10653698B2, “Methods of improving myocardial performance in Fontan patients using udenafil compositions” (priority 2014, dated 2020)
